# Measurements from patent US20260325533A1, “CDK INHIBITOR COMPOUNDS” (ALEKSIA THERAPEUTICS, INC., priority 2023, published 2026).
# Read-outs that look alike come from different tables or passages of the source.
# Assays:
# Format in all cases: biochemical
# CDK4/CCND3 = CDK4/CCND3 (Homo sapiens, UniProt P11802); assay: CDK4 homogeneous time-resolved fluorescence (HTRF) kinase assay
# In short: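 IC50s derive from Lance 665 nm or 665/615 nm signals in 11-point, half-log dose series (top 10 μM, 1% DMSO). The enzyme, 1.5 nM CDK4/CCND3, phosphorylates 50 nM ULight-4E-BP1 peptide with 1 mM ATP over 60 min at 23 °C.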
# CDK1/CCNB1 = CDK1/CCNB1 (Homo sapiens, UniProt P06493); assay: CDK1 homogeneous time-resolved fluorescence (HTRF) kinase assay
# CDK1/CCNB1, sequence (P06493 whole entry): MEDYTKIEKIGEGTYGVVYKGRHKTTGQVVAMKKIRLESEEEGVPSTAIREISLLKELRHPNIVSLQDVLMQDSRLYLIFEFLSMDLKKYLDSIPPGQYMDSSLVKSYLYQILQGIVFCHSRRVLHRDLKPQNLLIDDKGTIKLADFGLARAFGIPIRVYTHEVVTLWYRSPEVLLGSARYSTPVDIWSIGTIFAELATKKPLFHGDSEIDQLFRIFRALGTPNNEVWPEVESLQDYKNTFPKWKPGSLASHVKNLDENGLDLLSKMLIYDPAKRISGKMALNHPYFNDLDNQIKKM
# CDK1/CCNB1, sequence (P14635 whole entry partner): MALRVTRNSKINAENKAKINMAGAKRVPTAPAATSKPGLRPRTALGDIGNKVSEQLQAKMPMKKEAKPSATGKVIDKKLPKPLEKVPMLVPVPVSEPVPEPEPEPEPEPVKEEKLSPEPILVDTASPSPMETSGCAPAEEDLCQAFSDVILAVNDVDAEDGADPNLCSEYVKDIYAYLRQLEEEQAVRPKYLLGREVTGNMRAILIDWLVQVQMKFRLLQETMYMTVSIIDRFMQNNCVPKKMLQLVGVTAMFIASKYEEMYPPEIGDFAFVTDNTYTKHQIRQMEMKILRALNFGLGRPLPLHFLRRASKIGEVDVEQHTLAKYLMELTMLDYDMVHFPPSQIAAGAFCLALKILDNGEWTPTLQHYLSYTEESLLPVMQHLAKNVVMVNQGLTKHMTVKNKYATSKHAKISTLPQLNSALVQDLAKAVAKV
# In short: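 Compounds, titrated 11 points in half-log steps typically from 10 μM, were incubated with enzyme for 20 min before ATP (1 mM) and ULight-labelled eIF4E-binding protein 1 peptide (50 nM) started a 60-min reaction at 23 °C. Phosphopeptide was detected by europium-antibody TR-FRET and IC50 values were derived.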
# CDK6/CCND1 = CDK6/CCND1 (Homo sapiens, UniProt Q00534); assay: CDK6 homogeneous time-resolved fluorescence (HTRF) kinase assay
# CDK6/CCND1, sequence (Q00534 whole entry): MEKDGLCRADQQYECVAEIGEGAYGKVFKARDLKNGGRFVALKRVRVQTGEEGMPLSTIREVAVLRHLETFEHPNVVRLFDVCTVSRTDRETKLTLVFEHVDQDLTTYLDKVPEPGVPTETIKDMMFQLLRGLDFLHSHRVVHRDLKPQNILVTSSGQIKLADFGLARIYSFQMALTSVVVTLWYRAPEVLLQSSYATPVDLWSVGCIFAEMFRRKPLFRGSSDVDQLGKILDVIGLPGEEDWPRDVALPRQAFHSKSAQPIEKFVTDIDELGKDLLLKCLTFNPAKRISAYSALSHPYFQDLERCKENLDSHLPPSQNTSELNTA
# CDK6/CCND1, sequence (P24385 whole entry partner): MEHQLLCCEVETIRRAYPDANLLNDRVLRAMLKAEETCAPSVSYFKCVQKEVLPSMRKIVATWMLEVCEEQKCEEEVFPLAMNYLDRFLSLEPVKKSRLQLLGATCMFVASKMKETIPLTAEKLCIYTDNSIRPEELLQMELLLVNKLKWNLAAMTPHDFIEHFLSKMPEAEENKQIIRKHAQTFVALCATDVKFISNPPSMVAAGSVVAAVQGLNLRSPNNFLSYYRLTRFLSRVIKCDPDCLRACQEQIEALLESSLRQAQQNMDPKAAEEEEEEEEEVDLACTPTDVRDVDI
# In short: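 Assay conditions: HEPES buffer containing 10 mM MgCl2, 1 mM EGTA, 2 mM DTT, 0.01% Tween 20; 1 nM CDK6/CCND1, 50 nM peptide substrate, 1 mM ATP. Detection after 60 min reaction used 2 nM europium antibody with 340 nm excitation. Potency fitted from half-log series, 11 points.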
# CDK2/CCNE1 = CDK2/CCNE1 (Homo sapiens, UniProt P24941); assay: CDK2 homogeneous time-resolved fluorescence (HTRF) kinase assay
# In short: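 TR-FRET read-out (665 nm, or 665/615 ratio) of Eu-antibody detection of phospho-4E-BP1 (Thr37/46) ULight peptide. Enzyme 3 nM, ATP 1 mM, peptide 50 nM, 1% DMSO; 60 min reaction at 23 °C after 20 min compound preincubation. IC50 from 11-point half-log titrations, top typically 10 μM.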
# [1] = CDK4/CCND, x = IC50 >250 nM, read-out: CDK4/CCND IC50 (>250 nM column)
# [2] = CDK1/CCNB, x = IC50 >250 nM, read-out: CDK1/CCNB IC50 (>250 nM column)
# [3] = CDK6/CCND, x = IC50 >250 nM, read-out: CDK6/CCND IC50 (>250 nM column)
# [4] = >250 nM, CDK4/CCND, read-out: CDK4/CCND IC50, >250 nM
# [5] = >250 nM, CDK1/CCNB, read-out: CDK1/CCNB IC50 >250 nM
# [6] = >250 nM, CDK6/CCND, 1 mM ATP, read-out: CDK6/CCND IC50, >250 nM
# [7] = 25-250 nM, CDK2/CCNE, read-out: CDK2/CCNE IC50, 25-250 nM
# [8] = CDK2/CCNE, x = IC50 <25 nM, read-out: CDK2/CCNE IC50 (<25 nM)
# [9] = 25-250 nM, CDK4/CCND, read-out: CDK4/CCND IC50, 25-250 nM
# [10] = <25 nM, CDK2/CCNE, read-out: CDK2/CCNE IC50, <25 nM
# CDK4/CCND3, sequence (P11802 whole entry): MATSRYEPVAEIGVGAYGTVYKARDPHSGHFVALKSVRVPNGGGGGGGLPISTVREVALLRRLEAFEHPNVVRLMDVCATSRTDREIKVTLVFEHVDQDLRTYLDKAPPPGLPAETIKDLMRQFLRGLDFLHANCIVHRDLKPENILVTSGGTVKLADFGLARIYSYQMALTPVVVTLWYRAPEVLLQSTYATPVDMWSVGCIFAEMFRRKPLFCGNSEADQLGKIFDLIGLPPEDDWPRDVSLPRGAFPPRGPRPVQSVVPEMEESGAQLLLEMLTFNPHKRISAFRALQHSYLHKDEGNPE
# CDK4/CCND3, sequence (P30281 whole entry partner): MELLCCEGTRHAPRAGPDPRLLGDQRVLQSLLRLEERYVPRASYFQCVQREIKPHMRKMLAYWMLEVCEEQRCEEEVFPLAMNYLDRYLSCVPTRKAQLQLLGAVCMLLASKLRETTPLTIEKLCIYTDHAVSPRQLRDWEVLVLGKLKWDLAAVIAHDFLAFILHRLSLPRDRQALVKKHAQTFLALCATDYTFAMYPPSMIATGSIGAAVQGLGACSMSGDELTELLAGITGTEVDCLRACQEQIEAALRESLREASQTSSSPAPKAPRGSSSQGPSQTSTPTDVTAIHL
compound,measurement,setting,value
"Cc1nc(C#Cc2nccc3cnc(Nc4ccc(S(C)(=O)=O)cc4)cc23)sc1C [Ex 540, 5-((4,5-dimethylthiazol-2-yl)ethynyl)-N-(4-(methylsulfonyl)phenyl)-2,6-naphthyridin-3-amine]",IC50,CDK4/CCND3; [1],> 250 nM
same,IC50,CDK1/CCNB1; [2],> 250 nM
same,IC50,CDK6/CCND1; [3],> 250 nM
same,IC50,"CDK2/CCNE1; CDK2/CCNE, x = IC50 >250 nM, read-out: CDK2/CCNE IC50 (>250 nM column)",> 250 nM
"CS(=O)(=O)c1ccc(Nc2cc3c(C#Cc4cnc(F)c(F)c4)nccc3cn2)cc1 [Example 852, 5-((5,6-difluoropyridin-3-yl)ethynyl)-N-(4-(methylsulfonyl)phenyl)-2,6-naphthyridin-3-amine]",IC50,CDK4/CCND3; [4],> 250 nM
same,IC50,CDK1/CCNB1; [5],> 250 nM
same,IC50,CDK6/CCND1; [6],> 250 nM
same,IC50,CDK2/CCNE1; [7],25 to 250 nM
"Cc1nn(-c2ccccc2)c(C)c1S(=O)(=O)Nc1ccc(Nc2cc3c(-c4ccc5c(cnn5CC(C)(C)O)c4C)nccc3cn2)cc1 [Ex 826, N-(4-((5-(1-(2-hydroxy-2-methylpropyl)-4-methyl-1H-indazol-5-yl)-2,6-naphthyridin-3-yl)amino)phenyl)-3,5-dimethyl-1-phenyl-1H-pyrazole-4-sulfonamide]",IC50,CDK4/CCND3; [4],> 250 nM
same,IC50,CDK1/CCNB1; [5],> 250 nM
same,IC50,CDK6/CCND1; [6],> 250 nM
same,IC50,"CDK2/CCNE1; >250 nM, CDK2/CCNE, read-out: CDK2/CCNE IC50, >250 nM",> 250 nM
"CS(=O)(=O)c1ccc(Nc2cc3c(C#Cc4ccc5[nH]ncc5c4)nccc3cn2)cc1 [Ex 645, 5-((1H-indazol-5-yl)ethynyl)-N-(4-(methylsulfonyl)phenyl)-2,6-naphthyridin-3-amine]",IC50,CDK4/CCND3; [1],> 250 nM
same,IC50,CDK1/CCNB1; [2],> 250 nM
same,IC50,CDK6/CCND1; [3],> 250 nM
same,IC50,"CDK2/CCNE1; CDK2/CCNE, x = IC50 25-250 nM, read-out: CDK2/CCNE IC50 (25-250 nM)",25 to 250 nM
"CCC1(CC)C(=O)Nc2cc(C#Cc3nccc4cnc(Nc5ccc(S(=O)(=O)CC(F)(F)F)cc5C)cc34)ccc21 [Ex 286, 3,3-diethyl-6-((7-((2-methyl-4-((2,2,2-trifluoroethyl)sulfonyl)phenyl)amino)-2,6-naphthyridin-1-yl)ethynyl)indolin-2-one]",IC50,"CDK4/CCND3; CDK4/CCND, >250 nM marked x, read-out: CDK4/CCND IC50 >250 nM",> 250 nM
same,IC50,"CDK1/CCNB1; CDK1/CCNB, >250 nM marked x, read-out: CDK1/CCNB IC50 >250 nM",> 250 nM
same,IC50,"CDK6/CCND1; CDK6/CCND, >250 nM marked x, read-out: CDK6/CCND IC50 >250 nM",> 250 nM
same,IC50,"CDK2/CCNE1; CDK2/CCNE, 25-250 nM marked x, read-out: CDK2/CCNE IC50 25-250 nM",25 to 250 nM
"N=S(=O)(c1ccc(Nc2cc3c(C#Cc4ccc5c(c4)NC(=O)C54CCC4)nccc3cn2)cc1)C1CC1 (single isomer, unassigned) [Ex 344, 6'-((7-((4-(cyclopropanesulfonimidoyl)phenyl)amino)-2,6-naphthyridin-1-yl)ethynyl)spiro[cyclobutane-1,3'-indolin]-2'-one]",IC50,"CDK4/CCND3; CDK4/CCND, x = IC50 25-250 nM, read-out: CDK4/CCND IC50 (25-250 nM)",25 to 250 nM
same,IC50,"CDK1/CCNB1; CDK1/CCNB, x = IC50 25-250 nM, read-out: CDK1/CCNB IC50 (25-250 nM)",25 to 250 nM
same,IC50,CDK6/CCND1; [3],> 250 nM
same,IC50,CDK2/CCNE1; [8],< 25 nM
"CS(=O)(=O)c1ccc(Nc2cc3c(C4=CCCCC4)ncnc3cn2)cc1 [Example 950, 4-(cyclohex-1-en-1-yl)-N-(4-(methylsulfonyl)phenyl)pyrido[3,4-d]pyrimidin-6-amine]",IC50,"CDK4/CCND3; 1.5 nM CDK4/CCND3, 1 mM ATP, read-out: CDK4/CCND IC50 >250 nM",> 250 nM
same,IC50,"CDK1/CCNB1; 0.5 nM CDK1/CCNB1, 1 mM ATP, read-out: CDK1/CCNB IC50 >250 nM",> 250 nM
same,IC50,"CDK6/CCND1; 1 nM CDK6/CCND1, 1 mM ATP, read-out: CDK6/CCND IC50 >250 nM",> 250 nM
same,IC50,"CDK2/CCNE1; 3 nM CDK2/CCNE1, 1 mM ATP, read-out: CDK2/CCNE IC50 25-250 nM",25 to 250 nM
"Cc1c(-c2nccc3cnc(Nc4ccc(S(=O)(=O)NC5CCN(C)C5)cc4)cc23)ccc2c1cnn2CC(C)(C)O (racemic) [Ex 771, 4-((5-(1-(2-hydroxy-2-methylpropyl)-4-methyl-1H-indazol-5-yl)-2,6-naphthyridin-3-yl)amino)-N-(1-methylpyrrolidin-3-yl)benzenesulfonamide]",IC50,CDK4/CCND3; [9],25 to 250 nM
same,IC50,CDK1/CCNB1; [5],> 250 nM
same,IC50,"CDK6/CCND1; 25-250 nM, CDK6/CCND, 1 mM ATP, read-out: CDK6/CCND IC50, 25-250 nM",25 to 250 nM
same,IC50,CDK2/CCNE1; [10],< 25 nM
"Cn1cc2c(Cl)c(-c3nccc4cnc(Nc5ccc(S(C)(=O)=O)cc5)cc34)ccc2n1 [Ex 655, 5-(4-chloro-2-methyl-2H-indazol-5-yl)-N-(4-(methylsulfonyl)phenyl)-2,6-naphthyridin-3-amine]",IC50,CDK4/CCND3; [1],> 250 nM
same,IC50,CDK1/CCNB1; [2],> 250 nM
same,IC50,CDK6/CCND1; [3],> 250 nM
same,IC50,CDK2/CCNE1; [8],< 25 nM
"CCN[S@](=N)(=O)c1ccc(Nc2cc3c(-c4ccc5c(cnn5CC(O)(C(F)(F)F)C(F)(F)F)c4C)nccc3cn2)cc1 [Example 682, (S)-N-ethyl-4-((5-(4-methyl-1-(3,3,3-trifluoro-2-hydroxy-2-(trifluoromethyl)propyl)-1H-indazol-5-yl)-2,6-naphthyridin-3-yl)amino)benzenesulfonimidamide]",IC50,CDK4/CCND3; [9],25 to 250 nM
same,IC50,CDK1/CCNB1; [5],> 250 nM
same,IC50,CDK6/CCND1; [6],> 250 nM
same,IC50,CDK2/CCNE1; [10],< 25 nM
"Cc1c(-c2nccc3cnc(Nc4ccc(S(=O)(=O)Nc5cccc(C(F)(F)F)c5)cc4)cc23)ccc2c1cnn2CC(C)(C)O [Ex 806, 4-((5-(1-(2-hydroxy-2-methylpropyl)-4-methyl-1H-indazol-5-yl)-2,6-naphthyridin-3-yl)amino)-N-(3-(trifluoromethyl)phenyl)benzenesulfonamide]",IC50,CDK4/CCND3; [4],> 250 nM
same,IC50,CDK1/CCNB1; [5],> 250 nM
same,IC50,CDK6/CCND1; [6],> 250 nM
same,IC50,CDK2/CCNE1; [7],25 to 250 nM
"Cc1nc[nH]c1C#Cc1nccc2cnc(Nc3ccc(S(C)(=O)=O)cc3)cc12 [Ex 883, 5-((4-methyl-1H-imidazol-5-yl)ethynyl)-N-(4-(methylsulfonyl)phenyl)-2,6-naphthyridin-3-amine]",IC50,CDK4/CCND3; [4],> 250 nM
same,IC50,CDK1/CCNB1; [5],> 250 nM
same,IC50,CDK6/CCND1; [6],> 250 nM
same,IC50,CDK2/CCNE1; [7],25 to 250 nM
